Reference: patent US8501743B2, “Personal care composition” (Conopco, Inc., priority 2007, dated 2013)

Key:
[1] = test system: Malassezia furfur CBS 7019; experiment: Formulation bio-efficacy (Malassezia kill) by Vitro-Skin assay; type: cell-based; details: FIG. 5
Experimental: Assessment of Formulation Bio-Efficacy (Malassezia Kill) by Vitro-Skin™ Assay Formulation bio-efficacy was assessed using an in vitro substantivity assay which evaluates the effectiveness of actives in shampoo and conditioners using Malassezia furfur CBS 7019 as the organism. Malassezia furfur for the inoculation of artificial skin were initially grown in Pityrosporum Broth, and added to molten agar slurry immediately prior to the inoculation of the Vitro-Skin™ at a final concentration of 1-3×10^5 cells/ml. Vitro-Skin™ was placed onto a Modified Dixon Agar Plate (1 skin per plate), and 0.5 ml of agar slurry inoculum was gently pipetted onto the rough surface of the skin, in a film 1-2 mm deep. After the agar had gelled, the plates were placed in an incubator (32° C.) for 24 h. Following incubation, each piece of Vitro-Skin™ was carefully folded in half (inoculum on the inside) using sterile forceps, and placed a vial containing 10 ml of Butterfield's phosphate buffer (pH 7.2), 0.1% Triton X-100, 0.5% Tween and 0.08% lecithin. The vial was vortexed for 1 min (high setting), and 1 ml of this sample (10°) then added to 9 ml of 0.1% peptone (in water: 10^−1 sample). This sample was then serially diluted to 10^−5 in 0.1% peptone. For immediate controls, 0.1 ml of 10^0-10^−4 dilutions were plated onto Modified Dixon Agar Plates. For 24 h incubated samples, 0.1 ml of 10^0-10^−5 dilutions were plated onto Modified Dixon Agar Plates, and incubated at 32° C. for 4-5 days. The number of colonies on each plate were then counted, and final numbers determined by multiplying by the appropriate dilution.

[2] = cited from earlier work
[3] = 0.2% active alone in shampoo formula 1

## CC(=O)N1CCN(c2ccc(OC[C@@H]3CO[C@@](Cn4ccnc4)(c4ccc(Cl)cc4Cl)O3)cc2)CC1 [ketoconazole, 1-[4-[4-[[(2S,4R)-2-(2,4-dichlorophenyl)-2-(imidazol-1-ylmethyl)-1,3-dioxolan-4-yl]methoxy]phenyl]piperazin-1-yl]ethanone]
[1]; 0.1% active alone in shampoo formula 1
  microkill (Malassezia furfur kill): relatively ineffective
[1]; [3]
  microkill (Malassezia furfur kill): highly effective
[2]; ethanol, ambient temperature
  solubility in ethanol: soluble
[2]; water
  solubility in water: virtually insoluble

## CC1CCC(C(C)C)C(O)C1 (stereo not drawn) [menthol]
[1]; [3]
  microkill (Malassezia furfur kill): relatively ineffective

## O=C(O)c1ccccc1O [salicylic acid]
[1]; [3]
  microkill (Malassezia furfur kill): relatively ineffective
